The text below walks through data of US4775680A, “Cyclohept[b]indolealkanoic acids, pharmaceutical compositions and use” (Merck & Co., Inc., priority 1987, dated 1988).

Assay [1] deals with T1, guinea pig tracheal chain (Cavia porcellus, UniProt A0A286Y4I8).
T1 construct: The trachea was removed, freed of extraneous tissue and sectioned into rings; from tissue; host or cells: guinea pig trachea (male albino Hartley strain)
T1 sequence (A0A286Y4I8 1-347): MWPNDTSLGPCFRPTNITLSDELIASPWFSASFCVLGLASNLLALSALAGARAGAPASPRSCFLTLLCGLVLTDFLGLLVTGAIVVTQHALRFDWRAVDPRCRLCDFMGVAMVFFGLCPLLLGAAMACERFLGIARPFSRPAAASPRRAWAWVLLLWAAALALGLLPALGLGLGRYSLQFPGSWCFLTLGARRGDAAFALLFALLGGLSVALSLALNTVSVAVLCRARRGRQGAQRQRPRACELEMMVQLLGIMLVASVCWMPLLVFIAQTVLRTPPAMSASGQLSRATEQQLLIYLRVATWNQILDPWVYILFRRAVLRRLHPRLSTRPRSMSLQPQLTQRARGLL
As to the kind of experiment: Estimation of pA2 values in guinea pig tracheal chain (agonist U-44069). The assay is classed as cell-based, guinea pig (male albino Hartley strain). As to conditions: for Kb: logarithmic scale, agonist U-44069, guinea pig tracheal chain. From the text:
ESTIMATION OF pA2 VALUES IN GUINEA PIG TRACHEAL CHAIN
Male albino Hartley strain guinea pigs (300-350 gm) were sacrificed by a blow to the head and exsanguinated. The trachea was removed, freed of extraneous tissue and sectioned into rings of 1-2 mm thickness. Five rings were tied together in series, ensuring that the tracheal muscle lay in the same vertical plane, and the cartilage of each ring then separated at a point directly opposite the muscle. The chains were suspended under 1 gm resting tension in modified Krebs solution (NaCl, 6.87; NaHCO3, 2.1; dextrose, 2.1; KCl, 0.32; CaCl2, 0.28; MgSO4, 7H2 O, 0.11; KH2 PO4, 0.16; gm/L: equilibrated with 5% CO2 in O2 for 1 hour) containing indomethacin (1.4×10-^5 M) to suppress endogenous protaglandin synthesis, Organ bath temperature was maintained at 37° C. and 5% CO2 in O2 diffused continously. Isometric tension changes were recorded from a Gould-Statham (UTC 2) force displacement transducer connected to a Beckman Type R Dynograph. For assay purposes initial maximal contractions were elicited with a high concentration of the contractile agonist [U-44069, 9.11-dideoxy-9a,11a-epoxymethano PGF2a ] and the tissue subsequently washed at intervals until tension returned to baseline. Agonist dose response curves were obtained using a cumulative-dose schedule (4-8 doses) and the preparations then washed at regular intervals until baseline tension was recorded. After an appropriate interval (1-1.5 hrs) agonist dose response curves were repeated in the presence of antagonist drug concentrations. […] EC50 values were obtained by regression analysis and used to calculate `apparent` and Schild Plot pA2 values by the method of Tallarida and Murray 1981.
In Table 6 below are presented data indicating the prostanoid antagonist activities of compounds of the present invention indicated in Table 1. It is to be noted that pA2 values are on a logarithmic scale, so that, for instance, a difference between two pA2 values of 1 represents a difference in potency by a factor of 10.

Another assay deals with human platelets. As to the kind of experiment: Inhibition of U44069-induced threshold aggregation of human platelets. The assay is classed as cell-based. The conditions noted are these: compound A versus compound 1; compound B versus compound 3. The method, then:
INHIBITION OF INDUCED THRESHOLD AGGREGATION OF HUMAN PLATELETS
Human platelet rich plasma (PRP) is prepared from venous blood of male volunteers who have taken no medication for ten days prior to test. Blood is transferred into plastic centrifuge tubes containing 3.8% Trisodium Citrate in 0.9% NaCl (in a ratio of blood to anticoagulant of 9:1), mixed by gentle inversion, and centrifuged at room temperature for ten minutes at 116 g. The supernatant (PRP) is transferred into plastic tubes. Platelet poor plasma (PPP) is obtained by centrifuging the residual blood cells at 4000 g for ten minutes. PRP is left to stand at least one half hour prior to testing.
Platelet Aggregation is measured using a Payton Aggregometer and Recorder. […]
The threshold (approximately 20-30% of maximum) aggregation concentration of the agonist to be used is first determined in the presence of the drug vehicle (control). […]
The height of the aggegation response (measured in divisions of the recorder paper, 1 division=2.5 mm) in the presence of the drug is recorded, and calculated as percent inhibition of the mean height of the control threshold responses. […]

As for `CS(=O)(=O)c1ccc(Cn2c3c(c4cc(F)cc(F)c42)CCCC(CC(=O)O)C3)cc1` (stereo not drawn), the Kb in assay [1] is 8.32 nM. The same measure, in the same setting: under `O=C(O)CC1CCCc2c(n(Cc3ccc(Cl)cc3)c3ccc(F)cc23)C1` (stereo not drawn) stands 3.16 nM.

`O=C(O)CC1CCCCc2c1c1cc(F)ccc1n2Cc1ccc(Cl)cc1` (stereo not drawn): the Kb in assay [1] is 42.7 nM.

Regarding `O=C(O)C1CCCc2c(n(Cc3ccc(Cl)cc3)c3ccc(F)cc23)C1` (stereo not drawn), in assay [1], the Kb is 129 nM. Take `O=C(O)CC1CCCCc2c1n(Cc1ccc(Cl)cc1)c1ccc(F)cc21` (stereo not drawn): in assay [1], the Kb was 1.35 nM. Consider `COc1ccc2c(c1)c1c(n2Cc2ccc(Cl)cc2)CC(CC(=O)O)CC1` (stereo not drawn) [Compound A, reference compound], for which the “potency as an inhibitor of platelet aggregation relative to the seven-membered ring analog” value with human platelets is “seventy times less potent than compound 1”. In assay [1] (compound A versus compound 1), the “factor corresponding to the pA2 difference from compound 1” value was 15 and the “pA2 lower than that of compound 1” value is recorded as 1.7 log units.

Regarding `COc1ccc2c(c1)c1c(n2Cc2ccc(Cl)cc2)CC(C(=O)O)CC1` (stereo not drawn) [Compound B, reference compound], in the assay on human platelets, the “potency as an inhibitor of platelet aggregation relative to the seven-membered ring analog” value is listed as “at least four times less potent than the latter”. For the same compound, in assay [1] (compound B versus compound 3), the “pA2 compared with compound 3, in words” value was “slightly lower pA2 value”. As to `COc1ccc2c(c1)c1c(n2Cc2ccc(Cl)cc2)CC(CC(=O)O)CC1` (stereo not drawn) [drawing 26], the Kb in assay [1] is 158 nM. On the same count and under the same terms, under `COc1ccc2c(c1)c1c(n2Cc2ccc(Cl)cc2)CC(C(=O)O)CC1` (stereo not drawn) [drawing 27] stands 158 nM.
